Data as given in patent publication US12383196B2, “Treatment of depression using machine learning” (The Board of Trustees of the Leland Stanford Junior …, priority 2018, dated 2025).

Test system: medication-free depressed outpatients
Assay: EMBARC placebo-controlled randomized clinical trial, treatment response on HAMD17
Format: in vivo, human
Conditions: for response rate (≥50% reduction in symptoms): sertraline arm, 8 weeks, 50-200 mg
Excerpt: Data were drawn from four studies. Establishment of the treatment-predictive rsEEG signature was accomplished with data from the Establishing Moderators and Biosignatures of Antidepressant Response in Clinic Care (EMBARC) study^21. EMBARC is the largest neuroimaging-coupled placebo-controlled randomized clinical trial (RCT) in depression to date and involved randomization of 309 medication-free depressed outpatients to receive either the selective serotonin reuptake inhibitor (SSRI) sertraline or placebo for eight weeks (FIG. 8). Of these, 228 had high-quality rsEEG data. We then compared the predictive utility of this algorithm against conventional machine learning approaches on the EEG data as well as a predictive model built on clinical data alone. The generalizability of the antidepressant-predictive signature was then tested in a second independent sample of depressed patients (N=72), for whom we had historical information about treatment response during the current depressive episode. A third independent sample of depressed patients (N=24) was used to assess two features of the treatment-predictive rsEEG signature: convergent validity and neurobiological significance. […] We also tested in the third sample whether regions that were prominent in the rsEEG signature reflected individual differences in cortical responsivity, as directly assessed through single pulse transcranial magnetic stimulation (TMS) during concurrent EEG recording. […]
To simply visualize how the SELSER predictions in FIG. 2A could be used for treatment stratification, we partitioned the patients in each arm by applying an arbitrary median split on the cross-validated predicted HAMD17 score changes derived from the sertraline alpha REO model. We then calculated the rates of treatment response (≥50% reduction in symptoms) for the portion of patients above the median (“high”) and below the median (“low”), respectively, based on the model-predicted HAMD17 change scores (FIG. 2E). […]

With `CN[C@H]1CC[C@@H](c2ccc(Cl)c(Cl)c2)c2ccccc21` [sertraline] the efficacy versus placebo (only for patients at the higher range of predicted HAMD17 score changes) was “superior to placebo”, the “response rate (≥50% reduction in symptoms)” value (high group (above median of cross-validated predicted HAMD17 score change, sertraline alpha REO model)) was 65% and the “response rate (≥50% reduction in symptoms)” value (low group (below median of cross-validated predicted HAMD17 score change, sertraline alpha REO model)) was 20%.
